This is an account of results in patent US7205343B2, “Stabilized bioactive preparations and method of use” (priority 1997, dated 2007).

Series [1] can be described thus: Surfactant adsorption/spreading at the air/water interface. In kind it is physicochemical. The text has this:
Stabilized dispersions formed according to the present invention provide for enhanced surfactant spreading at the pulmonary air/water interface. In this regard, the equilibrium surface tension of dimyristoylphosphatidylcholine is ca. 22 mN/m. […] The slow adsorption for liposomes is due to the slow molecular diffusion of DMPC through the water phase. […] This rapid spreading and reduction of surface tension is indicative of what would occur upon contacting the perforated microstructures with a wetted pulmonary membrane.

A short description of series [2]: Plasma insulin pharmacokinetics after LDI or IM administration (radioimmunoassay). The note with it: fasting rabbits. Format: in vivo.
For another series, the system named is serum glucose. As to the kind of experiment: Serum glucose levels after LDI or IM insulin administration. In kind it is in vivo. The note with it: fasting rabbits. The protocol: In the case of LDI administration, rabbits were anesthetized, intubated, placed on a respirator, and their lungs were instilled with ca. 4.5 ml/kg of perflubron. […] Control animals were injected IM with a similar dose of insulin (Humulin R).

Series [3] in a line: Gentamicin biodistribution in lung lobes by immunoassay. Format: in vivo, New Zealand white rabbits. The conditions noted are these: rabbits; 5 mg/kg; one hour post-administration. The text has this:
Individual lobes of the lungs were collected and analyzed quantitatively for gentamicin by an immunoassay method. […] Excellent biodistribution across the lung lobes was observed following either IM or LDI administration.

The next series has as its system Streptococcus pneumoniae. The experiment in a line: Acute pneumonia model, survival after antibiotic treatment. In kind it is in vivo, Male Wistar rats. The note with it: rats inoculated intratracheally with 10^9 cfu S. pneumoniae; 10 mg ampicillin intramuscular one day after inoculation. The text has this:
Male Wistar rats […] were inoculated intratracheally with 10^9 colony forming units of Streptococcus pneumoniae. The model is an acute pneumonia model with 100% of untreated control animals dying within 4 days of inoculation.

On the set-up of series [4]: species or system rats. The conditions noted are these: Wistar, rat, in vivo. The protocol: Ampicillin concentrations in lung tissue and serum were measured for the two treatment groups in Example XV by a bioassay method. In this method, 60 μl of lung tissue homogenate, or serum obtained from the rats at various points after dosing is placed on a sterile disk. The desk is them placed on an agar plate covered with S. pneumoniae and incubated for 24 hr. […] The no-growth zones were quantitated, and concentrations of antibiotic were calculated based on a standard curve.

Consider `CCCCCCCCCCCCCC(=O)OC[C@H](COP(=O)([O-])OCC[N+](C)(C)C)OC(=O)CCCCCCCCCCCCC` [DMPC, dimyristoylphosphatidylcholine], for which the equilibrium surface tension entry in series [1] is recorded as “ca. 22 mN/m”.
As to Human Insulin, the Cmax in series [2] (IM, Humulin R, dose similar to 0.86 IU/kg, plasma insulin) is on record as 110.5 μU/ml; in series [2] (LDI (4.5 ml/kg perflubron), Example XI formulation, 0.86 IU/kg, plasma insulin), 210.4 μU/ml. The AUC in series [2] (IM, Humulin R, plasma insulin) was 20770 μU min/ml; in series [2] (LDI (4.5 ml/kg perflubron), Example XI formulation, 0.86 IU/kg), 11100 μU min/ml. The Tmax in series [2] (IM, Humulin R, plasma insulin) is 1 h. The Serum glucose level stood at 184.2 mg/dL with serum glucose (IM Humulin R, 0 min); 253.6 mg/dL in the series with serum glucose (IM Humulin R, 5 min); 256.0 mg/dL with serum glucose (IM Humulin R, 10 min); 216.8 mg/dL with serum glucose (IM Humulin R, 15 min); 168.2 mg/dL in the series with serum glucose (IM Humulin R, 30 min); 82.0 mg/dL with serum glucose (IM Humulin R, 60 min). Also, the Serum glucose level with serum glucose (IM Humulin R, 90 min) is 48.2 mg/dL; in the series with serum glucose (IM Humulin R, 120 min) it was 18.0 mg/dL; with serum glucose (IM Humulin R, 150 min), 29.4 mg/dL; with serum glucose (IM Humulin R, 180 min), 28.8 mg/dL; in the series on serum glucose (IM Humulin R, 240 min) it was 29.4 mg/dL; in the series with serum glucose (IM Humulin R, 360 min), 115.8 mg/dL. In addition, the Serum glucose level with serum glucose (LDI Example XI formulation in perflubron, 0.86 IU/kg, 0 min) is 175.7 mg/dL; in the series on serum glucose (LDI Example XI formulation in perflubron, 0.86 IU/kg, 5 min), 218.8 mg/dL; in the series with serum glucose (LDI Example XI formulation in perflubron, 0.86 IU/kg, 10 min), 211.7 mg/dL; with serum glucose (LDI Example XI formulation in perflubron, 0.86 IU/kg, 15 min), 198.2 mg/dL; in the series with serum glucose (LDI Example XI formulation in perflubron, 0.86 IU/kg, 30 min), 143.3 mg/dL; in the series on serum glucose (LDI Example XI formulation in perflubron, 0.86 IU/kg, 60 min), 83.2 mg/dL. Besides, the Serum glucose level in the series with serum glucose (LDI Example XI formulation in perflubron, 0.86 IU/kg, 90 min) came to 38.2 mg/dL; in the series with serum glucose (LDI Example XI formulation in perflubron, 0.86 IU/kg, 120 min) it was 31.2 mg/dL; in the series with serum glucose (LDI Example XI formulation in perflubron, 0.86 IU/kg, 150 min) it was 31.7 mg/dL; in the series with serum glucose (LDI Example XI formulation in perflubron, 0.86 IU/kg, 180 min), 33.4 mg/dL; with serum glucose (LDI Example XI formulation in perflubron, 0.86 IU/kg, 240 min), 49.2 mg/dL.
Take gentamicin: the “lung gentamicin concentrations following LDI relative to IM” value in series [3] is “ca. 2 orders of magnitude higher”.
`CC1(C)S[C@@H]2[C@H](NC(=O)[C@H](N)c3ccccc3)C(=O)N2[C@H]1C(=O)O` [Ampicillin]: in the series with Streptococcus pneumoniae, the “animals surviving to 10 days” value is recorded as 27%. For the same molecule, in series [4], the “local lung concentrations with LDI delivery relative to IM” value is given as 250 times higher, the “persistence of local lung concentrations with LDI delivery” value is “persisted for several days” and the “persistence of serum levels following LDI administration” value is recorded as “at least 4 hours”. Moreover, in series [4] (2 h), the “serum ampicillin levels following IM administration” value was “undetectable”.
